Source: patent US7674816B2, “Substituted melatonin derivatives, process for their preparation, and methods of use” (Abraxis BioScience, LLC, priority 2003, dated 2010)
Like-named read-outs stand apart in the source and are kept apart here.

Key:
rats [1] = assay: In vivo hypnotic activity: time to recovery of righting reflex after tail vein injection; conditions: 28 μmol/kg (5 mg/kg for propofol), in DMSO
Protocol: (§1) The suspension was centrifuged at 1000×g for 10 minutes at 4° C. The pellet was washed twice in assay buffer and reacted with radioactive ligand in presence or absence of […] at 10^−4 M final concentration. The amount of radioactivity remained on the Whatman filter following filtration of the reaction mix and two washes with assay buffer was determined using a liquid scintillation counter. Inhibition of radioactive ligand binding by melatonin represents the competitive binding of melatonin to the same site as the radioactive ligand. GABAA Cl channel were assayed using ^3H-TBOB. The binding was carried out in the presence of increasing concentration of melatonin and the KD determined graphically using the Hill plots. In vivo hypnotic activity was determined as follow. Drugs solubilized in DMSO were administered to rats by tail vein injection (N=5 rats per group). A dose level of 28 μmol/kg (5 mg/kg for propofol) was used to compensate for differences in molecular weight of the analogs. Anesthetic activity in vivo was determined as time to recovery of righting reflex following administration of the compounds.

GABAA Cl channel [2] = assay: GABAA Cl channel binding constant determination (3H-TBOB, increasing concentration, Hill plots); conditions: bovine hippocampus
Protocol: as §1

Dawley rats = assay: Response to tail clamping after single i.v. bolus; assay type: in vivo; conditions: single i.v. bolus 15 mg/kg, in 10% ethanol/16% Cremophor
Protocol: This example illustrates the tail clamping with melatonin analogs. Dawley rats (Harlan, Indianapolis, Ind., USA) were weighed and anaesthetized with isoflurane. In all rats, the right jugular vein was cannulated with a heparinized saline filled catheter. Studies were carried out 5-7 days after surgery.
Tail clamp was tested by application of a rubber-clad vascular clamp (22 cm DeBakey) across the proximal third of the tail. Purposeful movement of the hind limbs and/or the head was noted as a positive response.

GABAA α-1 site [3] = assay: GABAA alpha 1 site competitive binding (3H-flunitrazepam); conditions: Conc. 1.0E−4 M, bovine hippocampus
Description: (§2) The binding profile of exemplary inventive compounds to neurotransmitter receptor sites is set forth below in Table 1. The characterization of the receptors, isolation of the membrane, and enzyme assay have been described in detail previously (see, e.g., Cole et al., Life Sci., 35, 1755 (1984), Lawrence et al., J. Neurochem., 45(3), 798 (1985), Sweetnam et al., Mol. Pharmacology, 29, 299 (1986), Zarkovsky et al., Neuropharmacology, 26 (7A), 737 (1987), Li et al., Eur. J. Pharmacology, 413, 63 (2001), and Markela et al., Mol. Pharmacology, 52, 380 (1997)).
(§3) The melatonin binding site on GABAA was defined using a series of competitive binding assays. Frozen bovine hippocampus was thawed and homogenized in 40 volumes of ice-cold 0.32 M sucrose. The suspension was centrifuged at 1000×g for 10 minutes at 4° C. The pellet was washed twice in assay buffer and reacted with radioactive ligand in presence or absence of melatonin at 10^−4 M final concentration. The amount of radioactivity remained on the Whatman filter following filtration of the reaction mix and two washes with assay buffer was determined using a liquid scintillation counter. Inhibition of radioactive ligand binding by melatonin represents the competitive binding of melatonin to the same site as the radioactive ligand. GABAA agonist site, GABAA α-1 site, GABAA α-5 site, GABAA α-6 site, and GABAA Cl channel were assayed using ^3H-GABA, ^3H-flunitrazepam, ^3H-RY80, ^3H-Ro 15-4513, and ^3H-TBOB.

GABAA α-6 site [4] = assay: GABAA alpha 6 site competitive binding (3H-Ro 15-4513); conditions: Conc. 1.0E−4 M, bovine hippocampus
Description: as §2, §3

GABAA agonist site = GABAA agonist site competitive binding (3H-GABA); conditions: bovine hippocampus
Description: as §2, §3

rats [5] = conditions: cited from earlier work; for ED95 (95% CI, for loss of righting reflex): intravenous
GABAA Cl channel [6] = assay: GABAA Cl channel, TBOB site competitive binding (3H-TBOB), single concentration; conditions: Conc. 1.0E−4 M, bovine hippocampus
Description: as §2, §3

GABAA Cl channel [7] = assay: as above; conditions: Conc. 1.0E−3 M, bovine hippocampus
GABAA α-1 site [8] = assay: GABAA alpha 1 site competitive binding (3H-flunitrazepam); conditions: Conc. 1.0E−3 M, bovine hippocampus
GABAA α-6 site [9] = assay: GABAA alpha 6 site competitive binding (3H-Ro 15-4513); conditions: Conc. 1.0E−3 M, bovine hippocampus

COc1ccc2[nH]c(-c3cccc(C(F)(F)F)c3)c(CCNC(C)=O)c2c1 [drawing 22]
Anesthesia Activity (Time to awakening, min) (rats [1]): 3.8 min

COc1ccc2[nH]c(-c3ccccc3)c(CCNC(C)=O)c2c1 [drawing 18]
IC50 (GABAA Cl channel [2]): 108 µM

COc1ccc2[nH]c(-c3ccc(F)cc3)c(CCNC(C)=O)c2c1 [drawing 26]
# lack of response rat/tested rat (Dawley rats): 5/5
Time of lack of response to the tail clamp (Dawley rats): 2 min

COc1ccc2[nH]c(-c3ccc(C)cc3)c(CCNC(C)=O)c2c1 [drawing 21]
IC50 (GABAA Cl channel [2]): 33.9 µM
Anesthesia Activity (Time to awakening, min) (rats [1]): 4.8 min

COc1ccc2[nH]c(-c3ccccc3)c(CCNC(C)=O)c2c1 [drawing 25, reference compound]
# lack of response rat/tested rat (Dawley rats): 0/5
Time of lack of response to the tail clamp, min (Dawley rats): No effect

COc1ccc2[nH]c(-c3ccc(F)cc3)c(CCNC(C)=O)c2c1 [drawing 19]
IC50 (GABAA Cl channel [2]): 27.9 µM
Anesthesia Activity (Time to awakening, min) (rats [1]): 3.0 min

CC(C)c1cccc(C(C)C)c1O [2,6-Diisopropylphenol, reference compound]
Specific binding, GABAA Alpha 1 site (inhibition of radioactive ligand binding) (GABAA α-1 site [3]): −14.31%
Specific binding, GABAA Alpha 6 site (inhibition of radioactive ligand binding) (GABAA α-6 site [4]): −0.89%
Specific binding, GABAA Agonist site (inhibition of radioactive ligand binding) (GABAA agonist site; Conc. 1.0E−4 M): 12.48%
Effect of bolus injection on righting reflex (rats [5]; bolus injection of 10 mg/kg): immediate loss of righting reflex
ED95 (95% CI, for loss of righting reflex) (rats [5]): 14.9 mg/kg
Specific binding, GABAA Ion Channels Cl−, TBOB site (inhibition of radioactive ligand binding) (GABAA Cl channel [6]): 117.52%

CCCC(C)C1(CC)C(=O)NC(=S)NC1=O (centres unmarked) [thiopental]
ED95 (95% CI, for loss of righting reflex) (rats [5]): 8 mg/kg

COc1ccc2[nH]c(-c3ccc(C(C)(C)C)cc3)c(CCNC(C)=O)c2c1 [drawing 29]
# lack of response rat/tested rat (Dawley rats): 5/5
Time of lack of response to the tail clamp (Dawley rats): 5 min

COc1ccc2[nH]cc(CCNC(C)=O)c2c1 [Melatonin, N-acetyl-5-methoxytryptamine]
Specific binding, GABAA Ion Channels Cl−, TBOB site (inhibition of radioactive ligand binding) (GABAA Cl channel [7]): 39.44%
Specific binding, GABAA Agonist site (inhibition of radioactive ligand binding) (GABAA agonist site; Conc. 1.0E−3 M): −3.11%
Specific binding, GABAA Alpha 1 site (inhibition of radioactive ligand binding) (GABAA α-1 site [8]): 39.80%
Effect of bolus injection on righting reflex (rats [5]; bolus injection of 312 mg/mL): immediate loss of righting reflex
Specific binding, GABAA Alpha 6 site (inhibition of radioactive ligand binding) (GABAA α-6 site [9]): 17.50%

COc1ccc2[nH]c(Br)c(CCNC(C)=O)c2c1 [2-Bromomelatonin, N-(2-(2-bromo-5-methoxy-1H-indol-3-yl)ethyl)acetamide]
Specific binding, GABAA Ion Channels Cl−, TBOB site (inhibition of radioactive ligand binding) (GABAA Cl channel [7]): 51.87%
Specific binding, GABAA Agonist site (inhibition of radioactive ligand binding) (GABAA agonist site; Conc. 1.0E−3 M): −8.55%
Specific binding, GABAA Alpha 1 site (inhibition of radioactive ligand binding) (GABAA α-1 site [8]): 8.35%
Specific binding, GABAA Alpha 6 site (inhibition of radioactive ligand binding) (GABAA α-6 site [9]): −12.69%

COc1ccc2[nH]c(-c3ccc(C)cc3)c(CCNC(C)=O)c2c1 [2-(4-Methylphenyl) melatonin, N-(2-(5-methoxy-2-p-tolyl-1H-indol-3-yl)ethyl)acetamide]
Specific binding, GABAA Alpha 1 site (inhibition of radioactive ligand binding) (GABAA α-1 site [3]): 10.28%
Specific binding, GABAA Alpha 6 site (inhibition of radioactive ligand binding) (GABAA α-6 site [4]): 32.93%
Specific binding, GABAA Ion Channels Cl−, TBOB site (inhibition of radioactive ligand binding) (GABAA Cl channel [6]): 101.46%

COc1ccc2[nH]c(-c3ccc(C(F)(F)F)cc3)c(CCNC(C)=O)c2c1 [drawing 20]
IC50 (GABAA Cl channel [2]): 13.1 µM
Anesthesia Activity (Time to awakening, min) (rats [1]): 20.8 min

COc1ccc2[nH]c(-c3ccc(F)cc3)c(CCNC(C)=O)c2c1 [2-(4-Fluorophenyl) melatonin, N-(2-(2-(4-fluorophenyl)-5-methoxy-1H-indol-3-yl)ethyl)acetamide]
Specific binding, GABAA Alpha 1 site (inhibition of radioactive ligand binding) (GABAA α-1 site [3]): 28.80%
Specific binding, GABAA Alpha 6 site (inhibition of radioactive ligand binding) (GABAA α-6 site [4]): 20.76%
Specific binding, GABAA Ion Channels Cl−, TBOB site (inhibition of radioactive ligand binding) (GABAA Cl channel [6]): 110.10%

COc1ccc2[nH]c(-c3ccc(C(F)(F)F)cc3)c(CCNC(C)=O)c2c1 [2-(4-Trifluoromethylphenyl) melatonin, N-(2-(2-(4-trifluoromethylphenyl)-5-methoxy-1H-indol-3-yl)ethyl)acetamide]
Specific binding, GABAA Alpha 1 site (inhibition of radioactive ligand binding) (GABAA α-1 site [3]): 8.11%
Specific binding, GABAA Alpha 6 site (inhibition of radioactive ligand binding) (GABAA α-6 site [4]): 25.87%
Specific binding, GABAA Ion Channels Cl−, TBOB site (inhibition of radioactive ligand binding) (GABAA Cl channel [6]): 103.23%

COc1ccc2[nH]c(-c3cccc(C(F)(F)F)c3)c(CCNC(C)=O)c2c1 [drawing 28]
# lack of response rat/tested rat (Dawley rats): 5/5
Time of lack of response to the tail clamp (Dawley rats): 5 min

CC(C)c1cccc(C(C)C)c1O [drawing 16, reference compound]
IC50 (GABAA Cl channel [2]): 4.86 µM
Anesthesia Activity (Time to awakening, min) (rats [1]): 20.8 min

COc1ccc2[nH]c(-c3ccc(C(C)(C)C)cc3)c(CCNC(C)=O)c2c1 [drawing 24]
Anesthesia Activity (Time to awakening, min) (rats [1]): 20.3 min

COc1ccc2[nH]c(-c3cccc(C(F)(F)F)c3)c(CCNC(C)=O)c2c1 [2-(3-Trifluoromethylphenyl) melatonin, N-(2-(2-(3-trifluoromethylphenyl)-5-methoxy-1H-indol-3-yl)ethyl)acetamide]
Specific binding, GABAA Alpha 1 site (inhibition of radioactive ligand binding) (GABAA α-1 site [3]): 15.61%
Specific binding, GABAA Alpha 6 site (inhibition of radioactive ligand binding) (GABAA α-6 site [4]): 25.39%
Specific binding, GABAA Ion Channels Cl−, TBOB site (inhibition of radioactive ligand binding) (GABAA Cl channel [6]): 79.60%

COc1ccc(-c2[nH]c3ccc(OC)cc3c2CCNC(C)=O)cc1 [drawing 23]
IC50 (GABAA Cl channel [2]): 19.9 µM
Anesthesia Activity (Time to awakening, min) (rats [1]): 3.5 min

CC(=O)NCCc1c(Cc2ccccc2)[nH]c2ccccc12 [Luzindole, reference compound]
Specific binding, GABAA Alpha 1 site (inhibition of radioactive ligand binding) (GABAA α-1 site [3]): 5.09%
Specific binding, GABAA Alpha 6 site (inhibition of radioactive ligand binding) (GABAA α-6 site [4]): 4.93%
Specific binding, GABAA Agonist site (inhibition of radioactive ligand binding) (GABAA agonist site; Conc. 1.0E−4 M): 5.84%
Specific binding, GABAA Ion Channels Cl−, TBOB site (inhibition of radioactive ligand binding) (GABAA Cl channel [6]): 47.55%

COc1ccc2[nH]c(-c3ccccc3)c(CCNC(C)=O)c2c1 [2-Phenylmelatonin, N-(2-(5-methoxy-2-phenyl-1H-indol-3-yl)ethyl)acetamide]
Specific binding, GABAA Alpha 1 site (inhibition of radioactive ligand binding) (GABAA α-1 site [3]): 35.16%
Specific binding, GABAA Alpha 6 site (inhibition of radioactive ligand binding) (GABAA α-6 site [4]): 12.48%
Specific binding, GABAA Agonist site (inhibition of radioactive ligand binding) (GABAA agonist site; Conc. 1.0E−4 M): 0.33%
Specific binding, GABAA Ion Channels Cl−, TBOB site (inhibition of radioactive ligand binding) (GABAA Cl channel [6]): 84.28%

COc1ccc2[nH]c(-c3ccc(C(F)(F)F)cc3)c(CCNC(C)=O)c2c1 [drawing 27]
# lack of response rat/tested rat (Dawley rats): 4/5
Time of lack of response to the tail clamp (Dawley rats): 15 min
